Assay results taken from US11850220B2 (Augusta University Research Institute, Inc., priority 2020, dated 2023).

How the values were obtained:
Assay type in all cases: in vivo
[1] = test system: carrageenan-induced paw edema; assay: carrageenan-induced paw edema technique (anti-inflammatory); conditions: for Observed (1/property): 1/(% inhibition of edema thickness at 3 h effect); as to Observed (1/property): test concentration or dose not given here; as to Potency (% Inhibition relative to indomethacin at 3 h effect): test concentration or dose not given here
Source text: Anti-inflammatory properties of the ibuprofen-amino acid conjugate (5a-j) and ibuprofen-amino acid-4-aminophenol conjugates 7a-j were studied by the standard carrageenan-induced paw edema technique (Naumov, R. N. et al., Bioorg. Med. Chem. Lett. 2015, 25, 2314-2320; Tiwari, A. D. et al., Org. Biomol. Chem. 2014, 12, 7238-7249).

[2] = test system: animal gastric mucosa; assay: ulcerogenic liability; conditions: in vivo
[3] = test system: acetic acid-induced abdominal writhing; assay: acetic acid-induced abdominal writhing technique (peripheral analgesic); conditions: for Potency: Relative to indomethacin; for % Inhibition/protection / Writing reflex ± SEM: in vivo; as to % Inhibition/protection: test concentration or dose not given here; as to Writing reflex ± SEM: test concentration or dose not given here
[4] = test system: hot plate; assay: hot plate technique (central analgesic); conditions: for Potency: Relative to indomethacin at 120 min.
[5] = % inhibition of edema thickness at 3 h effect, Table 7
[6] = anti-inflammatory property (% inhibition of edema at 3 h), Table 8

Row | SMILES | Observed (1/property) ([1]; Table 7) | % inhibition of edema ([1]; 1 h) | Mean edema thickness ([1]; 1 h) | % inhibition of edema ([1]; 2 h) | Mean edema thickness ([1]; 2 h) | % inhibition of edema ([1]; 3 h) | Mean edema thickness ([1]; 3 h) | % inhibition of edema ([1]; 4 h) | Mean edema thickness ([1]; 4 h) | % inhibition of edema ([1]; 24 h) | Mean edema thickness ([1]; 24 h) | Observed property [1, 5] | Observed property [1, 6] | Potency (% Inhibition relative to indomethacin at 3 h effect) [1] | Potency [3] | % Inhibition/protection [3] | Writing reflex ± SEM [3] | % protection ([4]; After 30 min.) | Latency period ± SEM ([4]; After 30 min.) | % protection ([4]; After 60 min.) | further results
1 | CC(C)Cc1ccc(C(C)C(=O)NCC(=O)O)cc1 (stereo not drawn) [Compound 5a, (2-(4-Isobutylphenyl)propanoyl)glycine] | 0.01389 | 53% | 0.58 ± 0.02 mm | 66% | 0.51 ± 0.04 mm | 72% | 0.37 ± 0.06 mm | 67% | 0.41 ± 0.04 mm | 68% | 0.06 ± 0.01 mm | 72% | 72% | 90% | 83 | 45.6% | 52.9 ± 1.3 | (15.3) % | 2.79 ± 0.03 s | (28.3) % | % Incidence of ulcer divided by 10 [2]: 0; Average of ulcer number [2]: 0; Average severity of ulcer [2]: 0; Number of animals with ulcer [2]: 0; Ulcer index [2]: 0; Latency period ± SEM ([4]; After 60 min.): 2.86 ± 0.04 s; % protection ([4]; After 90 min.): (29.1) %; Latency period ± SEM ([4]; After 90 min.): 2.84 ± 0.02 s; % protection ([4]; After 120 min.): (29.7) %; Latency period ± SEM ([4]; After 120 min.): 2.84 ± 0.05 s; Potency [4]: 52
2 | CSCC[C@H](NC(=O)C(C)c1ccc(CC(C)C)cc1)C(=O)O (stereo partly drawn) [Compound 5i, (2-(4-Isobutylphenyl)propanoyl)-L-methionine] | 0.02222 | 24% | 0.93 ± 0.04 mm | 54% | 0.69 ± 0.05 mm | 45% | 0.71 ± 0.04 mm | 12% | 1.10 ± 0.06 mm | 79% | 0.04 ± 0.01 mm | 45% | 45% | 56% | 40 | 22.2% | 75.7 ± 1.9 | (32.2) % | 3.20 ± 0.03 s | (51.1) % | Latency period ± SEM ([4]; After 60 min.): 3.35 ± 0.06 s; % protection ([4]; After 90 min.): (61.4) %; Latency period ± SEM ([4]; After 90 min.): 3.55 ± 0.07 s; % protection ([4]; After 120 min.): (13.2) %; Latency period ± SEM ([4]; After 120 min.): 2.48 ± 0.04 s; Potency [4]: 23
